Source: US12544395B2, “Combination compositions comprising a beta-lactamase inhibitor and uses thereof” (priority 2018, dated 2026)

How the values were obtained:
Type in all cases: cell-based
K. pneumoniae 170375 = assay: Broth microdilution MIC (strain enzymes: SHV-12, CTX-M15 and TEM-1)
K. pneumoniae ESBL 7 #1 = assay: Broth microdilution MIC (strain enzymes: SHV-12, TEM-1)
K. pneumoniae KP 4 = assay: Broth microdilution MIC (strain enzymes: SHV-2a, SHV-5, TEM-1)
E. coli 1924 = assay: Broth microdilution MIC (strain enzymes: TEM-12)
K. pneumoniae 3151 = assay: Broth microdilution MIC (strain enzymes: SHV-12, TEM-1)
K. pneumoniae 329633 = assay: Broth microdilution MIC (strain enzymes: SHV-5, TEM-1)
E. coli 2806 = assay: Broth microdilution MIC (strain enzymes: SHV-12, TEM-1)
K. oxytoca 169219 = assay: Broth microdilution MIC (strain enzymes: TEM-1, CTXM-15)
K. oxytoca 496 #2 = assay: Broth microdilution MIC (strain enzymes: SHV-105, TEM-1)
E. coli SI-M004 = assay: Broth microdilution MIC (strain enzymes: SHV-2, GES-12)
K. oxytoca 176877 = assay: Broth microdilution MIC (strain enzymes: SHV-105)
K. pneumoniae KP 3 = assay: Broth microdilution MIC (strain enzymes: SHV-1, TEM-1)
E. coli ESBL 4 = assay: Broth microdilution MIC (strain enzymes: CTX-M15, TEM-1)
K. pneumoniae 11/23 LF#2 = assay: microbe, parasite or virus in culture
K. pneumoniae SI-KP NO30 = assay: Broth microdilution MIC (strain enzymes: TEM-26b, SHV-60, SHV-26)
E. coli SI-PBLII = assay: Broth microdilution MIC (strain enzymes: CTX-M2, TEM-1)
K. pneumoniae KI (KCl) = assay: Broth microdilution MIC (strain enzymes: TEM-10)
E. coli 25922 = assay: Broth microdilution MIC (strain enzymes: None detected)
E. coli SI-V502 = assay: Broth microdilution MIC (strain enzymes: TEM-29, CTX-M15)
E. coli ESBL 2 = assay: Broth microdilution MIC (strain enzymes: TEM-1)
E. coli SI-NO36 = assay: Broth microdilution MIC (strain enzymes: SHV-11, TEM-1)
K. pneumoniae 153239 = assay: as above
[1] = Klebsiella pneumoniae, alone, read-out: MIC of ceftibuten (CTB)

Nc1nc(/C(=C/CC(=O)O)C(=O)N[C@@H]2C(=O)N3C(C(=O)O)=CCS[C@H]23)cs1 [Ceftibuten, ceftibuten, reference compound]
> 32 µg/mL: MIC (K. pneumoniae 3151; Klebsiella pneumoniae, 3151, alone, read-out: MIC of ceftibuten (CTB)) | MIC (E. coli ESBL 4; Escherichia coli, ESBL4, alone, read-out: MIC of ceftibuten (CTB))
2 µg/mL: MIC (E. coli 2806; Escherichia coli, 2806, alone, read-out: MIC of ceftibuten (CTB)) | MIC (K. pneumoniae KP 3; Klebsiella pneumoniae, KP3, alone, read-out: MIC of ceftibuten (CTB)) | MIC (K. pneumoniae 11/23 LF#2; Klebsiella pneumoniae, read-out: MIC of ceftibuten (CTB))
1 µg/mL: MIC (K. pneumoniae KI (KCl); [1])
16 µg/mL: MIC (K. pneumoniae 329633; Klebsiella pneumoniae, 329633, alone, read-out: MIC of ceftibuten (CTB))
4 µg/mL: MIC (K. oxytoca 169219; Klebsiella oxytoca, 169219, alone, read-out: MIC of ceftibuten (CTB)) | MIC (K. oxytoca 176877; Klebsiella oxytoca, 176877, alone, read-out: MIC of ceftibuten (CTB))
0.5 µg/mL: MIC (E. coli 1924; Escherichia coli, 1924, alone, read-out: MIC of ceftibuten (CTB)) | MIC (E. coli SI-PBLII; Escherichia coli, alone, read-out: MIC of ceftibuten (CTB)) | MIC (E. coli SI-V502; Escherichia coli, SIV502, alone, read-out: MIC of ceftibuten (CTB)) | MIC (E. coli SI-NO36; Escherichia coli, SINO36, alone, read-out: MIC of ceftibuten (CTB))
8 µg/mL: MIC (K. oxytoca 496 #2; Klebsiella oxytoca, alone, read-out: MIC of ceftibuten (CTB)) | MIC (E. coli ESBL 2; Escherichia coli, ESBL2, alone, read-out: MIC of ceftibuten (CTB))
32 µg/mL: MIC (K. pneumoniae 170375; Klebsiella pneumoniae, 170375, alone, read-out: MIC of ceftibuten (CTB)) | MIC (K. pneumoniae ESBL 7 #1; [1]) | MIC (K. pneumoniae KP 4; Klebsiella pneumoniae, KP4, alone, read-out: MIC of ceftibuten (CTB)) | MIC (E. coli SI-M004; Escherichia coli, SIM004, alone, read-out: MIC of ceftibuten (CTB))
0.25 µg/mL: MIC (K. pneumoniae SI-KP NO30; Klebsiella pneumoniae, SIKPNO30, alone, read-out: MIC of ceftibuten (CTB)) | MIC (E. coli 25922; Escherichia coli, 25922, alone, read-out: MIC of ceftibuten (CTB)) | MIC (K. pneumoniae 153239; Klebsiella pneumoniae, 153239, alone, read-out: MIC of ceftibuten (CTB))

O=C(O)[C@H]1/C(=C/CO)O[C@@H]2CC(=O)N21 [Clavulanic acid, clavulanic acid, reference compound]
0.25 µg/mL: MIC of cefixime (CFM) (K. pneumoniae ESBL 7 #1; with inhibitor at 4 μg/mL) | MIC of cefalexin (LEX) (K. pneumoniae 329633; with inhibitor at 4 μg/mL) | MIC of cefdinir (CDR) (K. pneumoniae 329633; with inhibitor at 4 μg/mL) | MIC of cefalexin (LEX) (E. coli 2806; with inhibitor at 4 μg/mL) | MIC of cefdinir (CDR) (E. coli 2806; with inhibitor at 4 μg/mL) | MIC of ceftibuten (CTB) (E. coli 2806; with inhibitor at 4 μg/mL) | MIC of cefalexin (LEX) (K. oxytoca 169219; with inhibitor at 4 μg/mL) | MIC of cefdinir (CDR) (K. oxytoca 169219; with inhibitor at 4 μg/mL) | MIC of cefixime (CFM) (K. oxytoca 176877; with inhibitor at 4 μg/mL) | MIC of ceftibuten (CTB) (K. pneumoniae 11/23 LF#2; with inhibitor at 4 μg/mL) | MIC of cefalexin (LEX) (E. coli 25922; with inhibitor at 4 μg/mL) | MIC of cefdinir (CDR) (E. coli 25922; with inhibitor at 4 μg/mL) | MIC of cefalexin (LEX) (E. coli SI-NO36; with inhibitor at 4 μg/mL) | MIC of cefdinir (CDR) (E. coli SI-NO36; with inhibitor at 4 μg/mL) | MIC of ceftibuten (CTB) (E. coli SI-NO36; with inhibitor at 4 μg/mL) | MIC of cefalexin (LEX) (K. pneumoniae 153239; with inhibitor at 4 μg/mL) | MIC of cefdinir (CDR) (K. pneumoniae 153239; with inhibitor at 4 μg/mL) | MIC of cefixime (CFM) (K. pneumoniae 153239; with inhibitor at 4 μg/mL)
32 µg/mL: MIC of cefixime (CFM) (E. coli ESBL 2; with inhibitor at 4 μg/mL)
0.06 µg/mL: MIC of ceftibuten (CTB) (K. pneumoniae 170375; with inhibitor at 4 μg/mL) | MIC of ceftibuten (CTB) (K. pneumoniae 3151; with inhibitor at 4 μg/mL) | MIC of cefalexin (LEX) (K. oxytoca 496 #2; with inhibitor at 4 μg/mL) | MIC of cefdinir (CDR) (K. oxytoca 496 #2; with inhibitor at 4 μg/mL) | MIC of cefixime (CFM) (K. pneumoniae SI-KP NO30; with inhibitor at 4 μg/mL) | MIC of ceftibuten (CTB) (K. pneumoniae SI-KP NO30; with inhibitor at 4 μg/mL) | MIC of ceftibuten (CTB) (K. pneumoniae KI (KCl); with inhibitor at 4 μg/mL) | MIC of ceftibuten (CTB) (K. pneumoniae 153239; with inhibitor at 4 μg/mL)
>32 µg/mL: MIC of cefalexin (LEX) (E. coli ESBL 2; with inhibitor at 4 μg/mL) | MIC of cefdinir (CDR) (E. coli ESBL 2; with inhibitor at 4 μg/mL)
4 µg/mL: MIC of ceftibuten (CTB) (E. coli ESBL 2; with inhibitor at 4 μg/mL)
1 µg/mL: MIC of cefalexin (LEX) (K. pneumoniae 170375; with inhibitor at 4 μg/mL) | MIC of cefdinir (CDR) (K. pneumoniae 170375; with inhibitor at 4 μg/mL) | MIC of cefixime (CFM) (E. coli 1924; with inhibitor at 4 μg/mL) | MIC of cefixime (CFM) (E. coli 2806; with inhibitor at 4 μg/mL) | MIC of cefixime (CFM) (E. coli SI-M004; with inhibitor at 4 μg/mL) | MIC of cefalexin (LEX) (K. pneumoniae KP 3; with inhibitor at 4 μg/mL) | MIC of cefdinir (CDR) (K. pneumoniae KP 3; with inhibitor at 4 μg/mL) | MIC of cefalexin (LEX) (E. coli ESBL 4; with inhibitor at 4 μg/mL) | MIC of cefdinir (CDR) (E. coli ESBL 4; with inhibitor at 4 μg/mL) | MIC of cefixime (CFM) (E. coli ESBL 4; with inhibitor at 4 μg/mL) | MIC of cefixime (CFM) (E. coli SI-PBLII; with inhibitor at 4 μg/mL) | MIC of cefalexin (LEX) (E. coli SI-V502; with inhibitor at 4 μg/mL) | MIC of cefdinir (CDR) (E. coli SI-V502; with inhibitor at 4 μg/mL) | MIC of cefixime (CFM) (E. coli SI-V502; with inhibitor at 4 μg/mL)
0.125 µg/mL: MIC of ceftibuten (CTB) (K. pneumoniae ESBL 7 #1; with inhibitor at 4 μg/mL) | MIC of cefalexin (LEX) (K. pneumoniae KP 4; with inhibitor at 4 μg/mL) | MIC of cefdinir (CDR) (K. pneumoniae KP 4; with inhibitor at 4 μg/mL) | MIC of cefixime (CFM) (K. pneumoniae KP 4; with inhibitor at 4 μg/mL) | MIC of cefalexin (LEX) (K. pneumoniae 3151; with inhibitor at 4 μg/mL) | MIC of cefdinir (CDR) (K. pneumoniae 3151; with inhibitor at 4 μg/mL) | MIC of cefixime (CFM) (K. pneumoniae 3151; with inhibitor at 4 μg/mL) | MIC of cefixime (CFM) (K. oxytoca 169219; with inhibitor at 4 μg/mL) | MIC of ceftibuten (CTB) (K. oxytoca 496 #2; with inhibitor at 4 μg/mL) | MIC of ceftibuten (CTB) (K. oxytoca 176877; with inhibitor at 4 μg/mL) | MIC of ceftibuten (CTB) (K. pneumoniae KP 3; with inhibitor at 4 μg/mL) | MIC of cefalexin (LEX) (K. pneumoniae SI-KP NO30; with inhibitor at 4 μg/mL) | MIC of cefdinir (CDR) (K. pneumoniae SI-KP NO30; with inhibitor at 4 μg/mL) | MIC of cefalexin (LEX) (K. pneumoniae KI (KCl); with inhibitor at 4 μg/mL) | MIC of cefdinir (CDR) (K. pneumoniae KI (KCl); with inhibitor at 4 μg/mL) | MIC of cefixime (CFM) (K. pneumoniae KI (KCl); with inhibitor at 4 μg/mL)
0.0149 µg/mL: MIC of ceftibuten (CTB) (K. oxytoca 169219; with inhibitor at 4 μg/mL)
0.5 µg/mL: MIC of cefixime (CFM) (K. pneumoniae 170375; with inhibitor at 4 μg/mL) | MIC of cefalexin (LEX) (K. pneumoniae ESBL 7 #1; with inhibitor at 4 μg/mL) | MIC of cefdinir (CDR) (K. pneumoniae ESBL 7 #1; with inhibitor at 4 μg/mL) | MIC of cefalexin (LEX) (E. coli 1924; with inhibitor at 4 μg/mL) | MIC of cefdinir (CDR) (E. coli 1924; with inhibitor at 4 μg/mL) | MIC of ceftibuten (CTB) (E. coli 1924; with inhibitor at 4 μg/mL) | MIC of cefalexin (LEX) (E. coli SI-M004; with inhibitor at 4 μg/mL) | MIC of cefdinir (CDR) (E. coli SI-M004; with inhibitor at 4 μg/mL) | MIC of ceftibuten (CTB) (E. coli SI-M004; with inhibitor at 4 μg/mL) | MIC of cefixime (CFM) (K. pneumoniae KP 3; with inhibitor at 4 μg/mL) | MIC of ceftibuten (CTB) (E. coli ESBL 4; with inhibitor at 4 μg/mL) | MIC of cefalexin (LEX) (K. pneumoniae 11/23 LF#2; with inhibitor at 4 μg/mL) | MIC of cefdinir (CDR) (K. pneumoniae 11/23 LF#2; with inhibitor at 4 μg/mL) | MIC of cefalexin (LEX) (E. coli SI-PBLII; with inhibitor at 4 μg/mL) | MIC of cefdinir (CDR) (E. coli SI-PBLII; with inhibitor at 4 μg/mL) | MIC of ceftibuten (CTB) (E. coli SI-PBLII; with inhibitor at 4 μg/mL) | MIC of cefixime (CFM) (E. coli 25922; with inhibitor at 4 μg/mL) | MIC of ceftibuten (CTB) (E. coli 25922; with inhibitor at 4 μg/mL) | MIC of ceftibuten (CTB) (E. coli SI-V502; with inhibitor at 4 μg/mL) | MIC of cefixime (CFM) (E. coli SI-NO36; with inhibitor at 4 μg/mL)
0.03 µg/mL: MIC of cefixime (CFM) (K. pneumoniae 329633; with inhibitor at 4 μg/mL) | MIC of ceftibuten (CTB) (K. pneumoniae 329633; with inhibitor at 4 μg/mL) | MIC of cefixime (CFM) (K. oxytoca 496 #2; with inhibitor at 4 μg/mL)
2 µg/mL: MIC of ceftibuten (CTB) (K. pneumoniae KP 4; with inhibitor at 4 μg/mL) | MIC of cefalexin (LEX) (K. oxytoca 176877; with inhibitor at 4 μg/mL) | MIC of cefdinir (CDR) (K. oxytoca 176877; with inhibitor at 4 μg/mL) | MIC of cefixime (CFM) (K. pneumoniae 11/23 LF#2; with inhibitor at 4 μg/mL)
